In patent publication US11358970B2, “Artemisinin-derived trimers and tetramers and their use thereof” (priority 2017, dated 2022):
Where two headings read alike, the source gives them in different places.

How the values were obtained:
[1] = test system: HeLa (human cervical carcinoma); experiment: MTT cytotoxicity assay, HeLa cell line; format: cell-based; conditions: read-out: IC50 HeLa
Protocol: (§1) Artesunate and dihydroartemisinin were purchased from AK Scientific (Union City, Calif.). CellTiter 96® Non-Radioactive Cell Proliferation Assay (MTT) reagent was purchased from Promega (Madison, Wis.). A549 (human lung carcinoma), HeLa (human cervical carcinoma), MOLT4 (human T-cell acute lymphoblastic leukemia) were purchased from American Type Culture Collection (Manassas, Va.) and cultured in Ham's F-12 K media supplemented with 10% FBS, 100 μg/ml of penicillin and 100 μg/ml of streptomycin. The culture was maintained at 37° C. in a humidified atmosphere of 5% CO2 and 95% air.
(§2) Both reference and test compounds were dissolved in DMSO in a 10-concentration and 3-fold serial dilution format. 50 nl stock solution of test compounds or 25 nl of reference compounds were delivered from the source plate to the wells of 384-well cell culture plates. 25 μl of culture medium containing 2,000 corresponding cancer cells were added to the wells. The plates were incubated at 37° C. in a humidified atmosphere of 5% CO2 and 95% air for 72 hours. 4 μl of MTT Dye Solution was added to each well and the plates were incubated at 37° C. in a CO2 incubator for 4 hours. After incubation, the formazan was produced in the cells. 25 μl of Solubilization/Stop Solution was added to each well and the plates were incubated for another 1 hour at 37° C. in a CO2 incubator to dissolve the formazan crystals.
(§3) The absorbance of each sample was measured at 590 nm using Envision 2104 Multilabel Reader (PerkinElmer, Santa Clara, Calif.). The cell viability was determined based on the quantification of the color intensity in each culture well. The inhibitory curves were plotted and the IC50 values were calculated using GraphPad Prism 4 program based on a sigmoidal dose-response equation.

[2] = test system: MOLT4 (human T-cell acute lymphoblastic leukemia); experiment: MTT cytotoxicity assay, MOLT4 cell line; format: cell-based; conditions: read-out: IC50 MOLT4
Protocol: as §1, §2, §3

[3] = test system: A549 (human lung carcinoma); experiment: MTT cytotoxicity assay, A549 cell line; format: cell-based; conditions: 72 hours; for inhibition at 0.1 µM / inhibition at 0.25 µM / inhibition at 0.5 µM / inhibition at 1 µM: Homo sapiens
Protocol: as §1, §2, §3

HepG2 cell line = experiment: MTT cytotoxicity assay, HepG2 cell line; format: cell-based
Protocol: as §2, §3

cytomegalovirus = conditions: relative to artesunate; cited from earlier work
23 leukemia cell lines = conditions: average over 23 leukemia cell lines, relative to artesunate; cited from earlier work
[4] = Homo sapiens, MOLT-4, MOLT4, 72 hours, MTT
[5] = Homo sapiens, HepG2, MTT, read-out: IC50 HepG2
[6] = HepG2, MTT, read-out: IC50 HepG2

C[C@H]1[C@H](OC(=O)CCC(=O)OCCN(CCOC(=O)CCC(=O)O[C@@H]2O[C@@H]3O[C@]4(C)CC[C@H]5[C@H](C)CC[C@@H]([C@H]2C)[C@@]35OO4)CCOC(=O)CCC(=O)O[C@@H]2O[C@@H]3O[C@]4(C)CC[C@H]5[C@H](C)CC[C@@H]([C@H]2C)[C@@]35OO4)O[C@@H]2O[C@@]3(C)CC[C@H]4[C@H](C)CC[C@@H]1[C@@]24OO3 [Compound 1]
IC50 ([1]; Homo sapiens, 72 hours, MTT): 1720 nM | IC50 [2, 4]: 318 nM | inhibition at 0.1 µM ([3]; 0.1 μM): 10% | inhibition at 0.25 µM ([3]; 0.25 μM): 14% | inhibition at 0.5 µM ([3]; 0.5 μM): 20% | inhibition at 1 µM ([3]; 1.0 μM): 47%

C[C@H]1[C@@H](O)O[C@@H]2O[C@@]3(C)CC[C@H]4[C@H](C)CC[C@@H]1[C@@]24OO3 [Dihydroartemisinin, reference compound]
IC50 ([1]; Homo sapiens, 72 hours, MTT): 9340 nM | IC50 [2, 4]: 680 nM | inhibition at 0.25 µM ([3]; 0.25 μM): 5% | inhibition at 0.5 µM ([3]; 0.5 μM): 10% | inhibition at 1 µM ([3]; 1.0 μM): 20%

C[C@H]1[C@H](OC(=O)CCC(=O)O)O[C@@H]2O[C@@]3(C)CC[C@H]4[C@H](C)CC[C@@H]1[C@@]24OO3 [Artesunate, reference compound]
IC50 ([1]; Homo sapiens, 72 h): 9570 nM | IC50 (HepG2 cell line; Homo sapiens, HepG2, read-out: IC50 HepG2): 11200 nM | IC50 ([2]; Homo sapiens, MOLT-4, 72 h): 1010 nM

C[C@H]1[C@H](OC(=O)CCC(=O)OCC(COC(=O)CCC(=O)O[C@@H]2O[C@@H]3O[C@@]4(C)CC[C@H]5[C@H](C)CC[C@@H]([C@H]2C)[C@@]35OO4)(COC(=O)CCC(=O)O[C@@H]2O[C@@H]3O[C@@]4(C)CC[C@H]5[C@H](C)CC[C@@H]([C@H]2C)[C@@]35OO4)NC=O)O[C@@H]2O[C@@]3(C)CC[C@H]4[C@H](C)CC[C@@H]1[C@@]24OO3 [Compound 11]
IC50 (HepG2 cell line; [5]): 550 nM

C[C@H]1[C@H](OC(=O)CCC(=O)NC(COC(=O)CCC(=O)O[C@@H]2O[C@@H]3O[C@@]4(C)CC[C@H]5[C@H](C)CC[C@@H]([C@H]2C)[C@@]35OO4)COC(=O)CCC(=O)O[C@@H]2O[C@@H]3O[C@@]4(C)CC[C@H]5[C@H](C)CC[C@@H]([C@H]2C)[C@@]35OO4)O[C@@H]2O[C@@]3(C)CC[C@H]4[C@H](C)CC[C@@H]1[C@@]24OO3 [Compound 4]
IC50 (HepG2 cell line; [5]): 1790 nM

C[C@H]1[C@H](OC(=O)CCC(=O)OCC(COC(=O)CCC(=O)O[C@@H]2O[C@@H]3O[C@@]4(C)CC[C@H]5[C@H](C)CC[C@@H]([C@H]2C)[C@@]35OO4)(COC(=O)CCC(=O)O[C@@H]2O[C@@H]3O[C@@]4(C)CC[C@H]5[C@H](C)CC[C@@H]([C@H]2C)[C@@]35OO4)NC(=O)OC(C)(C)C)O[C@@H]2O[C@@]3(C)CC[C@H]4[C@H](C)CC[C@@H]1[C@@]24OO3 [Compound 7]
IC50 ([1]; Homo sapiens, 72 hours, MTT): 602 nM | IC50 [2, 4]: 119 nM | inhibition at 0.1 µM ([3]; 0.1 μM): 12% | inhibition at 0.25 µM ([3]; 0.25 μM): 14% | inhibition at 0.5 µM ([3]; 0.5 μM): 21% | inhibition at 1 µM ([3]; 1.0 μM): 40%

C[C@@H]1[C@@H](OC(=O)CCC(=O)NC(COC(=O)CCC(=O)O[C@@H]2O[C@@H]3O[C@@]4(C)CC[C@H]5[C@H](C)CC[C@@H]([C@H]2C)[C@@]35OO4)(COC(=O)CCC(=O)O[C@@H]2O[C@@H]3O[C@@]4(C)CC[C@H]5[C@H](C)CC[C@@H]([C@H]2C)[C@@]35OO4)COC(=O)CCC(=O)O[C@@H]2O[C@@H]3O[C@@]4(C)CC[C@H]5[C@H](C)CC[C@@H]([C@H]2C)[C@@]35OO4)O[C@H]2O[C@@]3(C)CC[C@@H]4[C@@H](C)CC[C@H]1[C@]24OO3 [Compound 13]
IC50 ([1]; Homo sapiens, 72 hours, MTT): 14200 nM | IC50 [2, 4]: 150 nM

CC1CCC2C(C)C(OC(=O)CCC(=O)OCC(COC(=O)CCC(=O)OC3OC4OC5(C)CCC6C(C)CCC(C3C)C46OO5)OC(=O)CCC(=O)OC3OC4OC5(C)CCC6C(C)CCC(C3C)C46OO5)OC3OC4(C)CCC1C32OO4 (centres unmarked) [Compound 3]
IC50 ([1]; 72 hours, MTT): 630 nM | IC50 (HepG2 cell line; [6]): 830 nM | IC50 ([2]; MOLT4, 72 hours, MTT): 60 nM

C[C@H]1[C@H](OC(=O)CCC(=O)OCCN(CCO)CCN(CCOC(=O)CCC(=O)O[C@@H]2O[C@@H]3O[C@@]4(C)CC[C@H]5[C@H](C)CC[C@@H]([C@H]2C)[C@@]35OO4)CCOC(=O)CCC(=O)O[C@@H]2O[C@@H]3O[C@@]4(C)CC[C@H]5[C@H](C)CC[C@@H]([C@H]2C)[C@@]35OO4)O[C@@H]2O[C@@]3(C)CC[C@H]4[C@H](C)CC[C@@H]1[C@@]24OO3 [Compound 16]
IC50 ([1]; Homo sapiens, 72 hours, MTT): 1110 nM | IC50 [2, 4]: 217 nM

C[C@H]1[C@H](OC(=O)CC(CC(=O)O[C@@H]2O[C@@H]3O[C@]4(C)CC[C@H]5[C@H](C)CC[C@@H]([C@H]2C)[C@@]35OO4)C(=O)O[C@@H]2O[C@@H]3O[C@]4(C)CC[C@H]5[C@H](C)CC[C@@H]([C@H]2C)[C@@]35OO4)O[C@@H]2O[C@@]3(C)CC[C@H]4[C@H](C)CC[C@@H]1[C@@]24OO3 (some centres unmarked) [Compound 14]
IC50 (HepG2 cell line; [6]): 1300 nM

C[C@@H]1CC[C@H]2[C@@H](C)C(OC(=O)CN(CC(=O)OC3O[C@@H]4O[C@@]5(C)CC[C@H]6[C@H](C)CC[C@@H]([C@H]3C)[C@@]46OO5)CC(=O)OC3O[C@@H]4O[C@@]5(C)CC[C@H]6[C@H](C)CC[C@@H]([C@H]3C)[C@@]46OO5)O[C@@H]3O[C@@]4(C)CC[C@@H]1[C@]32OO4 (some centres unmarked) [Compound 2]
IC50 ([1]; 72 hours, MTT): 1140 nM | IC50 ([2]; MOLT4, 72 hours, MTT): 320 nM | Inhibition (%) ([3]; 0.1 μM): 12% | Inhibition (%) ([3]; 0.25 μM): 20% | Inhibition (%) ([3]; 0.5 μM): 21% | Inhibition (%) ([3]; 1.0 μM): 40%

C[C@H]1[C@H](OC(=O)CCC(=O)OCCN(CCOC(=O)CCC(=O)O[C@@H]2O[C@@H]3O[C@@]4(C)CC[C@H]5[C@H](C)CC[C@@H]([C@H]2C)[C@@]35OO4)CCN(CCOC(=O)CCC(=O)O[C@@H]2O[C@@H]3O[C@@]4(C)CC[C@H]5[C@H](C)CC[C@@H]([C@H]2C)[C@@]35OO4)CCOC(=O)CCC(=O)O[C@@H]2O[C@@H]3O[C@@]4(C)CC[C@H]5[C@H](C)CC[C@@H]([C@H]2C)[C@@]35OO4)O[C@@H]2O[C@@]3(C)CC[C@H]4[C@H](C)CC[C@@H]1[C@@]24OO3 [Compound 15]
IC50 ([1]; Homo sapiens, 72 hours, MTT): 35200 nM | IC50 [2, 4]: 275 nM

C[C@H]1[C@H](OC(=O)CCC(=O)OCC(COC(=O)CCC(=O)O[C@@H]2O[C@@H]3O[C@@]4(C)CC[C@H]5[C@H](C)CC[C@@H]([C@H]2C)[C@@]35OO4)(COC(=O)CCC(=O)O[C@@H]2O[C@@H]3O[C@@]4(C)CC[C@H]5[C@H](C)CC[C@@H]([C@H]2C)[C@@]35OO4)NC(=O)C(F)(F)F)O[C@@H]2O[C@@]3(C)CC[C@H]4[C@H](C)CC[C@@H]1[C@@]24OO3 [Compound 12]
IC50 (HepG2 cell line; [5]): 7800 nM

C[C@@H]1CCC2[C@@H](C)[C@@H](CC(COP(=O)(Oc3ccccc3)Oc3ccccc3)C[C@H]3O[C@@H]4O[C@@]5(C)CCC6[C@H](C)CCC([C@H]3C)[C@]64OO5)O[C@@H]3O[C@@]4(C)CCC1[C@@]23OO4 (some centres unmarked) [ART838]
fold more potent in inhibiting growth of cytomegalovirus than artesunate (cytomegalovirus): 165 fold | folds more potent than artesunate in inhibiting 23 leukemia cell lines (average) (23 leukemia cell lines): 88 folds

CC(=O)NC(COC(=O)CCC(=O)O[C@@H]1O[C@@H]2O[C@@]3(C)CC[C@H]4[C@H](C)CC[C@@H]([C@H]1C)[C@@]24OO3)(COC(=O)CCC(=O)O[C@@H]1O[C@@H]2O[C@@]3(C)CC[C@H]4[C@H](C)CC[C@@H]([C@H]1C)[C@@]24OO3)COC(=O)CCC(=O)O[C@@H]1O[C@@H]2O[C@@]3(C)CC[C@H]4[C@H](C)CC[C@@H]([C@H]1C)[C@@]24OO3 [Compound 9]
IC50 ([1]; Homo sapiens, 72 hours, MTT): 360 nM | IC50 (HepG2 cell line; [5]): 310 nM | IC50 [2, 4]: 66 nM
